According to US20250057808A1, “COMPOSITION COMPRISING BETA LACTAM FOR TREATING ALCOHOL DEPENDENCE AND ALCOHOL ASSOCIATED DISEASES OR CONDITIONS” (Temple University of the Commonwealth System of Higher …, priority 2023, published 2025):
“Also recorded” adds a separate entry of the source. Like-named read-outs stand apart in the source and are kept apart here.

Key:
[1] = rodent liver microsomes in vitro; cited from earlier work
[2] = cited from earlier work
[3] = tested on: HMGβ-1; test: Western blot HMGβ-1 in subregions of mPFC and NAc; assay type: in vivo, Male P rats
Procedure: (§1) All P rats were euthanized by CO2 inhalation and decapitated with a guillotine 24 hours after the final i.p. injection was administered on Day 6 of Week 6. Brains were removed and immediately frozen on dry ice and stored at −80° C. The mPFC subregions (infralimbic cortex and prelimbic cortex) and NAc subregions (core and shell) were dissected using a cryostat machine kept at −20° C. Surgical blades were used to dissect all brain regions following visualized landmarks using the stereotaxic coordinates provided by Paxinos and colleague's rat brain stereotactic atlas. All brain regions were stored in −80° C. Western Blot analyses.
(§2) Western blot was performed to determine the expression of BDNF, TNF-α, RAGE, HMGβ-1, and β-tubulin in the subregions of mPFC and NAc as preformed in previous studies.
(§3) Brain samples were lysed with a lysing buffer containing protease inhibitors. The amount of protein in each sample was quantified using a detergent compatible protein assay (Bio-Rad, Hercules, CA, USA). Polyacrylamide gels (10%) were loaded with the lysate mixture, and proteins were separated using gel electrophoresis for 1 hour. Proteins were then transferred from the gels onto Polyvinylidene difluoride (PVDF) membranes (BioRad). After transfer, membranes were incubated for 30 minutes in a mixture of nonfat milk in 1×Tris-buffered saline with Tween-20 (TBST) at room temperature. Membranes were then incubated at 4° C. for 24 hours with primary antibodies: anti-rabbit BDNF (1:1000, Abeam, #ab108319), anti-rabbit TNF-α (1:500, Abeam, #ab9739), anti-rabbit HMGβ-1 (1:500, Abeam, #ab18256), and anti-rabbit RAGE (1:1000, Abeam, #ab37407). Anti-mouse-β-tubulin (1:1000, Cell Signaling Technology, #D71G9) was used as a loading control antibody. After incubating for 24 hours, secondary antibody such as donkey anti-rabbit (1:4000, Invitrogen, #31458) or anti-mouse (1:4000, Cell Signaling, #7076S) was added to the membrane for 1 hour at room temperature. The membranes were then washed with 1×TBST three times for 5 minutes each and then dried. Membranes were then incubated in chemiluminescent reagents (Super Signal West Pico, Pierce Inc.) for 2 minutes. Blot images were developed using ChemiDoc. Imaging System and ImageJ software version 1.53a were used to quantify and analyze the expression of BDNF, TNF-α, RAGE, HMGβ-1, and β-tubulin.
(§4) The data for the water/saline control group were expressed as 100% based on the values corresponding to the ethanol/saline and ethanol/MC-100093 groups for each set of blotting. Thus, the expression of selected proteins for each group (ethanol/saline group or ethanol/MC-100093 group) was calculated relative to the water/saline control group being set to 100%.
(§5) Statistical analyses were performed using GraphPad Prism Version 10. Two-way repeated measures ANOVA followed by Bonferroni post-hoc tests were used to compare water and ethanol intake, and body weight, amongst water group, ethanol/saline group and ethanol/MC-100093 group. A one-way ANOVA test was performed to compare the expression of the studied proteins in selected brain regions in water/saline, ethanol/saline and ethanol/MC-100093 groups. Statistical significance was determined by a p-value of or less than 0.05.

[4] = tested on: fat content in the liver; test: Liver Oil Red O staining (fat content); assay type: in vivo, P rats; details: MC-100093 50 mg/kg or ceftriaxone 200 mg/kg i.p. 5 days, control, ethanol, ethanol-CEF groups
Procedure: To measure the fat content in the liver sections, we used Oil Red O (Sigma, CAS Number 1320-06-5) staining on 10 μm thick formalin-fixed liver sections and placed in slides for further staining. The slides were stained with freshly prepared Oil Red O working solution 15 minutes then rinsed with 60% isopropanol. Slides were then rinsed with distilled water and mounted in aqueous mounting media and prepared for imaging. The degree of Oil Red O staining was determined at 20× magnification using a color video camera attached to an Olympus VS120 slide scanning microscope. Olympus OlyVIA software was used to analyze the images. The lipid droplets were quantified using Image J pro (NIH). Data are presented as the mean+SEM of the Oil Red O staining for each group.
All statistical analyses were conducted with Graphpad Prism software, with p-values of 0.05 or less being statistically significant. We performed a two-way (mixed model) ANOVA followed by Bonferroni multiple comparison post-hoc test to analyze 24 h ethanol consumption, 24 h water consumption, and daily body weight. For the Western blot and oil red O staining analysis, we performed one-way ANOVA with Newman-Keuls as a post hoc multiple comparison test to measure differences between groups as a percentage (relative to control values).

[5] = tested on: glutamate uptake; details: astrocyte-neuron co-culture model, cited from earlier work
[6] = tested on: TNF-α; test: Western blot TNF-α in subregions of mPFC and NAc; assay type: in vivo, Male P rats
Procedure: as §1, §2, §3, §4, §5

[7] = cited from earlier work; remark: listed apart in the source
[8] = tested on: plasma protein; details: cited from earlier work
[9] = 100 mg/kg i.p., compared to ethanol/saline group
[10] = post-treatment with MC-100093 100 mg/kg i.p., 100 mg/kg

SMILES: C[C@@H](O)[C@H]1C(=O)N[C@@H]1[C@@H](C)C(=O)N1CCN(C)CC1 [MC-100093]
- Stability in liver microsomes [1]: high stability
- Aqueous solubility [2]: high aqueous solubility
- HMGβ-1 expression in the NAc shell ([3]; 100 mg/kg i.p., compared to ethanol group): decreased the expression of HMGβ-1
- HMGβ-1 expression in the IL [3, 9]: decreased HMGβ-1 expression
- HMGβ-1 expression in the NAc core [3, 9]: decreased the expression of HMGβ-1
- HMGβ-1 expression in the PL [3, 9]: decreased the expression of HMGβ-1
- HMGβ-1 expression in IL, PL, NAc core and NAc shell (summary) [3, 10]: normalized HMGβ-1 expression in all these brain regions; also recorded: attenuated ethanol-induced upregulation of pro-inflammatory cytokines such as TNF-a and HMGB1
- Liver fat content (Oil Red O stained fat droplets) [4]: no significant difference in fat content between control, ethanol-MC, and ethanol-CEF groups; also recorded: significantly higher fat droplet content in ethanol group (p<0.05) compared to control, ethanol-MC or ethanol-CEF groups; also recorded: alleviated the liver steatosis
- Enhancement of glutamate uptake [5]: 23.5%
- IC50 ([5]; read-out: IC50 (enhancement of glutamate uptake)): 100 nM
- TNF-α expression in the IL [6, 9]: decreased significantly TNF-α expression
- TNF-α expression in the NAc core [6, 9]: decreased significantly TNF-α expression
- TNF-α expression in the NAc shell [6, 9]: decreased TNF-α expression
- TNF-α expression in the PL [6, 9]: significantly decreased the expression of TNF-α
- TNF-α expression in IL, PL, NAc core and NAc shell (summary) [6, 10]: normalized TNF-α expression in all these brain regions; also recorded: attenuated ethanol-induced upregulation of pro-inflammatory cytokines such as TNF-a and HMGB1
- Brain/plasma ratio ([7]; after intraperitoneal (i.p) injection): 14%
- Oral bioavailability (in words) ([7]; following oral administration): orally bioavailable; also recorded: high oral bioavailability; also recorded: some bioavailability
- In vivo half-life ([7]; intraperitoneal route): 4.2 h
- In vivo half-life ([7]; oral route): 5.26 h
- Oxidative metabolism ([7]; rat, in vivo): no oxidative metabolism
- Oral bioavailability (F) ([7]; rats): 28%
- Binding to plasma protein [8]: low binding to plasma protein
